Experiments:
[1] = tested on: electrically-stimulated left atria; test: Electrically-stimulated beating left atrium, organ bath; assay type: cell-based, guinea-pig; conditions: for Effect of pretreatment on KMUP-3-induced positive inotropic activity: propranolol and Y27632 1 μM, C3 exoenzyme 50 μg/mL, ketanserin 1.0 μM, L-NAME 100 μM; for Effect of pretreatment on KMUP-3-induced contractility: sGC inhibitor ODQ, eNOS inhibitor L-NAME
Description: (§1) Organ bath experiments and tissue procurement. Guinea-pigs were killed by a blow on the head. Their hearts were quickly excised and trimmed of excess tissues. The atrium was carefully removed and placed at room temperature (20˜25° C.) in a Krebs solution of the following composition (mM): NaCl 113, KCl 4.8, CaCl2 2.2, KH2PO4 1.2, MgCl2 1.2, NaHCO3 25, dextrose 11.0; bubbled with a 95% O2+5% CO2 mixture, followed by separation of right and left atrium for subsequent experiments.
Quiescent left atria free of connective tissues were dissected and mounted in an organ bath under a resting tension of 0.5 g. Organs were bathed at 32.5° C. in aerated Krebs solution and electrically stimulated with 1 Hz at […] via two platinum electrodes placed at either side. The positive inotropic effect was measured by determining the cumulative concentration-response curves in the presence of KMUP-3 or KMUP-3 amine salt (0.1, 1.0, 10, 100 μM). To examine the possible involvement of NO and cAMP/cGMP in the action of KMUP-3 or KMUP-3 amine salt on electrically-stimulated beating atria, pre-incubated with a ROCK inhibitor Y27632 (1.0 μM), a β-adrenoceptor blocker propranolol (1.0 μM), eNOS inhibitors L-NAME (100 μM), 7-nitroindazole (100 μM) and 5-HT inhibitor ketanserin (1.0 μM) was performed for 15 min prior to the addition of KMUP-3 or KMUP-3 amine salt to measure the development of beating force and heart rate for 10 min.

[2] = tested on: isolated spontaneously beating right atrium; test: Spontaneously beating right atrium, organ bath; assay type: cell-based, guinea-pig; conditions: for Effect of pretreatment on the beating frequency decreased by KMUP-3: atropine 1 μM, 7-nitroindazole 100 μM
Description: as §1
Spontaneously beating right atrium was dissected from the heart and mounted in a 10 ml organ bath with one end fixed and the other end connected to a force displacement transducer (Grass, Model FT03). The frequency of contraction was measured on a separate channel by a tachometer (Coulbourn, Model S77-26) connected to a high-speed videograph (Coulbourn, AT L19-69). These experiments were carried out at 32.5° C. in Krebs solution. The atria strip was pre-stretched to a baseline tension of 0.5 g and equilibrated for 90 min in aerated (95% O2+5% CO2) Krebs solution before the experimental protocols were initiated. The atria were then allowed a 30-60 min washout period to re-stabilize. KMUP-3 or KMUP-3 amine salt (0.1, 1.0, 10, 100 μM) were then cumulatively added to the organ bath. […]

L-type Ca2+ channels = test: Ca2+ entry currents in H9c2 cells, whole cell patch-clamp; assay type: cell-based, rat; conditions: KMUP-3 10 μM with KT5823 3 μM or Y27642 50 μM
Description: To measure the ICa through L-type Ca^2+ channels, whole cell patch-clamp electrophysiology was used in rat heart-derived H9c2 cells as previously described. In brief, H9c2 cells were placed in a recording dish and perfused with a bath solution containing (in mM): 135 tetraethylammonium (TEA)-Cl, 1.8 CaCl2, 2 MgCl2, 10 glucose, and 10 HEPES (pH 7.4, Tris). […] Negative pressure was briefly applied to rupture the membrane and a gigaohm seal was obtained.
H9c2 cells were clamped at −80 mV with step depolarizations (300 ms) from −80 to 0 mV to evoke whole-cell ICa. Voltage clamped cells were equilibrated for 15 min prior to experimentation. Membrane currents were recorded on an Axopatch 700A amplifier (Axon Instruments, Union City, Calif.), filtered at 1 kHz using a low-pass Bessel filter, digitized at 5 kHz and stored on a computer for subsequent analysis with Clampfit 9.0. Following equilibration, ICa was monitored in the presence and absence of KMUP-3 or KMUP-3 amine salt (1, 10, 100 μM). To ascertain whether PKG or ROCK signaling was involved in the KMUP-3-induced decreases in ICa, H9c2 cells were incubated for 15 min with the combination of KMUP-3 or KMUP-3 amine salt (10 μM) and PKG antagonist KT5823 (3 μM) or ROCK inhibitor Y-27632 (50 μM). All electrical recordings were performed at room temperature.

PKG = PKG expression in beating left atrium, Western blotting; assay type: cell-based, guinea-pig; conditions: L-NAME pretreatment
Description: (§2) Protein extraction and Western blotting analysis. Briefly, after incubation with test agents in an organ bath, isolated beating atrium was frozen and pulverized to a fine powder at the temperature of liquid nitrogen. Atrium powders were then homogenized in protein extraction reagent (Pierce Biotechnology, Inc., Rockford, Ill.) by sonication. The samples were sonicated 10 sec three times and centrifuged at 13,000 rpm at 4° C. for 30 min. The protein concentrations of supernatants were determined by using bovine serum albumin as the standard. The cell extracts were then boiled in a ratio of 4:1 with sample buffer (Tris 100 mM, pH 6.8; glycerol 20%, Sodium dodecyl sulfate (SDS) 4% and bromophenol blue 0.2%). Electrophoresis was performed using 10% SDS-PAGE and transferred to nitrocellulose membranes (Millipore Corp., Billerica, Mass.). […] The intensity of the bands was measured by densitometry. eNOS or phosphorylated eNOS were extracted from cell culture of neonatal myocytes, PA ring and aortic ring (2-3 mm) of rats and measured by Western blotting analysis.
(§3) PK, ROCKII and CIP-17 expression and pretreatment of beating left atrium. To examine whether KMUP-3 or KMUP-3 amine salt affects the protein expression in beating atrium, PKA, ROCKII, PKG and phosphorylated CIP-17 was determined by Western blotting, respectively. […]

[3] = tested on: phosphorylated eNOS (p-eNOS); test: Phosphorylated eNOS expression in neonatal myocytes, Western blotting; assay type: cell-based, rat; conditions: L-NAME 100 μM pretreatment
Description: (§4) eNOS/p-NOS and cAMP/cGMP in neonatal myocytes. To determine the role of the NO/cGMP-pathway in heart, neonatal rat myocyte protein was extracted followed by Western blotting to measure the expression of eNOS, phosphorylated eNOS (p-eNOS), cAMP, and cGMP (FIG. 14 A-14 B and FIG. 15 A-15 B). KMUP-3 increased eNOS and p-eNOS in neonatal rat cardiomyocytes and the effect was reduced by L-NAME (100 μM)-pretreatment (FIG. 14A and FIG. 14B). KMUP-3 increased both cAMP and cGMP.
as §2, with “standard.” for “standard. The cell extracts were then boiled in a ratio of 4:1 with sample buffer (Tris 100 mM, pH 6.8; glycerol 20%, Sodium dodecyl sulfate (SDS) 4% and bromophenol blue 0.2%). Electrophoresis was performed using 10% SDS-PAGE and transferred to nitrocellulose membranes (Millipore Corp., Billerica, Mass.).”

eNOS = eNOS expression in neonatal myocytes, Western blotting; assay type: cell-based, rat; conditions: L-NAME 100 μM pretreatment
Description: as §4
as §2, with “standard.” for “standard. The cell extracts were then boiled in a ratio of 4:1 with sample buffer (Tris 100 mM, pH 6.8; glycerol 20%, Sodium dodecyl sulfate (SDS) 4% and bromophenol blue 0.2%). Electrophoresis was performed using 10% SDS-PAGE and transferred to nitrocellulose membranes (Millipore Corp., Billerica, Mass.).”

PKA = PKA expression in electrically-stimulated left atria, Western blotting; assay type: cell-based, guinea-pig; conditions: Y27632 1-100 μM
Description: (§5) Protein extraction and Western blotting analysis. Briefly, after incubation with test agents in an organ bath, isolated beating atrium was frozen and pulverized to a fine powder at the temperature of liquid nitrogen. Atrium powders were then homogenized in protein extraction reagent (Pierce Biotechnology, Inc., Rockford, Ill.) by sonication. The samples were sonicated 10 sec three times and centrifuged at 13,000 rpm at 4° C. for 30 min. The protein concentrations of supernatants were determined by using bovine serum albumin as the standard. The cell extracts were then boiled in a ratio of 4:1 with sample buffer (Tris 100 mM, pH 6.8; glycerol 20%, Sodium dodecyl sulfate (SDS) 4% and bromophenol blue 0.2%). Electrophoresis was performed using 10% SDS-PAGE and transferred to nitrocellulose membranes (Millipore Corp., Billerica, Mass.). The membrane was blocked with Tris-buffered saline (TBS; 20 mM Tris and 137 mM NaCl, pH 7.6) containing 0.1% Tween 20 (TTBS) and 5% nonfat milk at room temperature for 1 h, washed with TTBS, and then incubated overnight at 4° C. in the appropriate primary antibody for PKARI, RhoA, ROCKII, p-CIP-17, CPI-17 and PKG1α1β. The membranes were washed in TTBS before being incubated with horseradish peroxidase-conjugated antibody against mouse, goat, or rabbit IgG for 1 hr. Membranes were then washed in TTBS and developed with the enhanced chemiluminescence for the detection of the specific antigen. The intensity of the bands was measured by densitometry. eNOS or phosphorylated eNOS were extracted from cell culture of neonatal myocytes, PA ring and aortic ring (2-3 mm) of rats and measured by Western blotting analysis.
as §3

ROCKII = ROCKII expression in electrically-stimulated left atria, Western blotting; assay type: cell-based, guinea-pig; conditions: Y27632 1-100 μM
Description: as §5, §3

PKCα = PKCα translocation of beating left atrium; assay type: cell-based, guinea-pig; conditions: Y27632 1-10 μM
Description: To determine the effect of KMUP-3 or KMUP-3 amine salt on PKCa translocation, isolated left beating atrium was incubated with KMUP-3 or KMUP-3 amine salt for 30 minutes (0.1-10 μM). In brief, frozen left atrium was pulverized to a fine powder at the temperature of liquid nitrogen for preparation of cytosolic and membrane fractions. Isolated left atrium tissues were then homogenized by a sonicator (XL-2020, Heat Systems Ultrasonic, Plainview, N.Y., USA) at 4 in 1 ml of homogenization buffer containing 20 mM Tris-HCl (pH 7.5), 1 mM dithiothreitol (DTT), 5 mM EGTA, 2 mM EDTA, 0.5 mM PMSF, 20 μM leupeptin and 20 μM aprotinin. The cytosol fractions were obtained by collecting the supernatants after centrifuging the cells at 100,000×g for 45 minutes at 4. The pellets were resonicated in the homogenizing buffer with 1% Triton X-100, centrifuged again at 100,000×g for 45 minutes at 4, and the supernatants collected as membrane fractions. The extracts for cytosol and membrane fractions were denatured by heating at for 10 minutes in sampling buffer, and an aliquot containing 20 μg of total protein was subjected to a 10% SDS-polyacrylamide gel electrophoresis. […] Protein was detected with horseradish peroxidase (HRP) conjugated secondary antibody (BD Transduction Laboratories). […] The immunoreactive bands were detected by chemiluminescence (ECL) reagents (PerkinElmer Life Sciences, Inc).

[4] = Hemodynamic measurements in anesthetized rats (LVSP, dP/dt, MABP, HR); assay type: in vivo, Wistar rats; conditions: intravenous pretreatment at 1 mg/kg; KMUP-3 1 mg/kg, i.v.
Description: Hemodynamic measurements were carried out in male Wistar rats weighting 300˜350 g, anesthetized with pentobarbital sodium (40 mg kg^−1, i.p.). In brief, polyethylene tubing (PE50) was placed in the trachea to keep the airway patent, and rats continued to breathe spontaneously. Subsequently, rats were used to record hemodynamic and cardiovascular function. Vascular catheters (PE50) were placed in the femoral arteries to measure mean arterial blood pressure (MABP) and heart rate (HR). Changes of MABP and HR caused by KMUP-3 or KMUP-3 amine salt were recorded from the femoral artery with a pressure transducer (Gould, Model P50, U.S.A.), connected with a Pressure Processor Amplifier (Gould, Model 13-4615-52, U.S.A.). A femoral vein was used for intravenous administration of KMUP-3 or KMUP-3 amine salt. A specialized transducer tip catheter was placed in the right carotid artery and advanced into the left ventricle of the heart for measurement of left ventricular pressure (LVSP) or contractility; dP/dt at 50 mm Hg, an index of cardiac contractility, was derived from the left ventricular pressure trace; post-hoc vascular resistance was calculated as mean arterial blood pressure/peripheral cardiac output (MABP/PCO). Body temperature was monitored throughout the experiment and maintained between 37 and 37.5° C. by using a heating pad.
Each dose of active drugs was administered as a 20-min infusion in a series of escalating doses dissolved in a 5% dextrose water vehicle. […] KMUP-3 HCl or KMUP-3 amine salt were infused at 0.03, 0.05, and 0.075 μg/kg/20 min for the measurement of FABP, intraperitoneally injected at 0.03, 0.05 and 0.1 mg/kg for the measurement of MABP and HR and infused by intravenous injection for 2 min at 0.5, 1.0, 3.0 mg/kg dissolved in 5% dextrose water vehicle (2 ml) for the measurement of LV systolic pressure (LVSH), ABP, dP/dt, and HR. The primary hemodynamic variables were computed using commercial software and a signal processing workstation. Animals were randomly divided into one of six treatment or vehicle groups. After the completion of the surgical protocol, animals were allowed to stabilize for 1 h, and baseline data were collected at 5-min intervals for 30 min before the treatment.

[5] = tested on: electrically-stimulated left atria; test: Electrically-stimulated beating left atrium, organ bath; assay type: cell-based, guinea-pig; conditions: 0.1~30 μM, electrical stimulation 1 Hz

## O=[N+]([O-])c1cccc2cn[nH]c12 [7-nitroindazole]
[1]; KMUP-3 10 μM with 7-nitroindazole 100 μM
  Effect of combination on left atria contractility increased by KMUP-3: reduced
[2]
  Effect of pretreatment on the beating frequency decreased by KMUP-3: up-regulated

## COC(=O)[C@@]1(OC)C[C@H]2O[C@]1(C)n1c3ccccc3c3c4c(c5c6ccccc6n2c5c31)C(=O)N(C)C4 [KT5823]
L-type Ca2+ channels
  Effect of combination on currents reduced by KMUP-3: restored

## COC(=O)[C@@H](N)CCCNC(=N)N[N+](=O)[O-] [L-NAME]
PKG
  Effect of pretreatment on expression of PKG: reduced
[3]
  Effect of pretreatment on KMUP-3-increased p-eNOS: reduced
eNOS
  Effect of pretreatment on KMUP-3-increased eNOS: reduced
[1]
  Effect of pretreatment on KMUP-3-induced positive inotropic activity: reduced
  Effect of pretreatment on KMUP-3-induced contractility: inhibited

## O=c1onc2cnc3ccccc3n12 [ODQ]
[1]
  Effect of pretreatment on KMUP-3-induced contractility: inhibited

## C[C@@H](N)[C@H]1CC[C@H](C(=O)Nc2ccncc2)CC1 [Y27632, reference compound]
PKA
  Effect on KMUP-3-induced expression of PKA: inhibited
ROCKII
  Effect on KMUP-3-induced expression of ROCK II: inhibited
PKCα
  Effect of pretreatment on KMUP-3-induced translocation of PKCα: insignificantly prevented
[1]
  Effect of pretreatment on KMUP-3-induced positive inotropic activity: reduced
L-type Ca2+ channels
  Effect of combination on currents reduced by KMUP-3: restored
[4]
  Effect of pretreatment on the effects (LVSP, dP/dt, MABP) induced by KMUP-3: inhibited

## CN1[C@@H]2CC[C@H]1C[C@@H](OC(=O)C(CO)c1ccccc1)C2 (stereo partly drawn) [atropine]
[2]
  Effect of pretreatment on the beating frequency decreased by KMUP-3: up-regulated

## O=C(c1ccc(F)cc1)C1CCN(CCn2c(=O)[nH]c3ccccc3c2=O)CC1 [ketanserin, reference compound]
[1]
  Effect of pretreatment on KMUP-3-induced positive inotropic activity: reduced
[4]
  Effect of pretreatment on the effects (LVSP, dP/dt, MABP) induced by KMUP-3: inhibited

## Cc1[nH]c(=O)c(C#N)cc1-c1ccncc1 [milrinone]
[2]; 0.1-30 μM
  Chronotropic effect (beating frequency): increased
  Inotropic effect (contraction force): increased
[5]
  Left atrium contractility: concentration-dependently increased

## CC(C)NCC(O)COc1cccc2ccccc12 (stereo not drawn) [propranolol, reference compound]
[1]
  Effect of pretreatment on KMUP-3-induced positive inotropic activity: reduced
[4]
  Effect of pretreatment on the effects (LVSP, dP/dt, MABP) induced by KMUP-3: inhibited

## C3 exoenzyme: C3 exoenzyme, used at 50 μg/mL as pretreatment
[1]
  Effect of pretreatment on KMUP-3-induced positive inotropic activity: reduced
